Entries after “also recorded” stand apart in the source; their conditions may differ. Values belong to the molecule of their own block, whether it stands above or below them. Where a SMILES comes first, the peptide text is derived from it. Where no end group is shown, it is not given here. Side-chain parts run from the residue outwards. The star is where a group is joined. Propyl(3-UDP) = O=c1ccn([C@@H]2O[C@H](COP(=O)(O)OP(=O)(O)OCCC*)[C@@H](O)[C@H]2O)c(=O)[nH]1; X1 = O=c1ccn([C@@H]2O[C@H](COP(=O)(O)OP(=O)(O)OCCCC*)[C@@H](O)[C@H]2O)c(=O)[nH]1; C3 linker = three-carbon linker from the acceptor serine to UDP; C4 linker = four-carbon linker from the acceptor serine to UDP
Experiments:
[1] = biological target: hOGT; design: method as in PMID 23103942; conditions: cited from earlier work
[2] = biological target: T1, SmNodC (Sinorhizobium meliloti NodC) (Rhizobium meliloti, UniProt P04341); experiment: Coupled fluorigenic in vitro assay of GlcNAc transferase SmNodC; assay type: biochemical; conditions: 1 mM–0.46 μM compound
T1 sequence (P04341 1-426): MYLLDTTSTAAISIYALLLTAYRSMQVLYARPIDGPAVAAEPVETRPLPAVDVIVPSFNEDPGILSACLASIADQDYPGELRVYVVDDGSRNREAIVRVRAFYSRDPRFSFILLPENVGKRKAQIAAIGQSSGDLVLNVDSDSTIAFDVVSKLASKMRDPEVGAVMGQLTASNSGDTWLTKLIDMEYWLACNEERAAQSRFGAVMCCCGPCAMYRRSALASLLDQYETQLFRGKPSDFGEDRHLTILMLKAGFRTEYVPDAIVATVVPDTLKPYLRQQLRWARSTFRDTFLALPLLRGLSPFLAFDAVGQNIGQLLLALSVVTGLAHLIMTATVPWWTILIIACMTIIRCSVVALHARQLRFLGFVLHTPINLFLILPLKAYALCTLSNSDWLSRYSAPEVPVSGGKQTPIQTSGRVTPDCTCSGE
Description: Figure S4 The bacterial GlcNAc transferase NodC is not inhibited by goblin1 7.27–7.20 (m, 4H), 7.16 (t, J 8.2 Hz, 4H), 6.31 (d, J 8.2 Hz, 1H), Sm NodC, a GlcNAc transferase from Sinorhizobium meliloti that utilizes UDP-GlcNAc to 5.11–4.95 (m, 4H), 4.61 (dt, J 8.2, 3.0 Hz, 1H), 4.41 (dd, J 10.5, synthesize chito-oligosaccharides, was assayed to investigate the selectivity of goblin1. A 7.2 Hz, 1H), 4.31 (dd, J 10.5, 7.5 Hz, 1H), 4.24–4.14 (m, 2H), coupled ﬂuorigenic in vitro assay was performed in the presence of 1 mM–0.46 μM of goblin1, 4.10 (dq, J 11.2, 5.9 Hz, 1H), 3.92 (dd, J 9.5, 3.3 Hz, 1H), 3.79 12, 17 and UDP. The assay (details available from D. M. F. v. A. on request) relies on (dd, J 9.5, 2.9 Hz, 1H), 3.58 (dt, J 10.4, 5.4 Hz, 1H), 3.47 (dt, the elongation of 4-methylumbellifer yl-N -acetyl-β 1,4-glucosamine by the GlcNAc transferase J 9.8, 6.0 Hz, 1H), 2.37 (s, 3H), 2.35 (s, 3H), 1.8 (m, 1H), 1.7 Sm NodC, and subsequent hydrolysis of the reaction products by Aspergillus fumigatus chitinase (m, 1H), 1.60 (m, 2H); 13 C NMR (126 MHz, [2 H]chloroform) […]
4-parameter IC50 equation in the GraphPad Prism program (http://www.graphpad.com). […]
Beamline, wavelength (A˚) ID 23-1, 0.981ture was stirred for 16 h at room temperature. The reaction Space group P 321was quenched by the addition of methanol, stirred for 30 min Cell dimensions˚) 273.7, 142.6and concentrated. The residue was partitioned between ethyl […]
Resolution (A acetate and 10 % aqueous citric acid solution and the layers R merge 0.136 (0.505)were separated. The organic layer was washed successively with I /σ I 9.2 (3.1)water and a mixture of saturated NaHCO3 solution and brine.
Completeness (%) 99.2 (99.7)The aqueous layer was additionally extracted with the same Redundancy 4.3 (4.5)portion of ethyl acetate. The combined organic layer was dried and Reﬁnement ˚) 30–3.15concentrated. The residue was puriﬁed by ﬂash chromatography […]

[3] = biological target: hOGT; design: method as in PMID 21258330; conditions: read-out: Ki for hOGT in vitro; cited from earlier work
[4] = biological target: T2, hOGT-(312–1031) (Homo sapiens, UniProt O15294); experiment: In vitro glycosylation of peptide substrate KKENSPAVTPVSTA by hOGT, fluorimetric UDP detection; assay type: biochemical; conditions: 10 μM peptide KKENSPAVTPVSTA, 3.2 μM UDP-GlcNAc, 50 nM hOGT
T2 construct: Reactions contained 50 nM hOGT-(312–1031) in 50 mM Tris/HCl; made in house
T2 sequence (O15294 312-1031 isoform O15294-3): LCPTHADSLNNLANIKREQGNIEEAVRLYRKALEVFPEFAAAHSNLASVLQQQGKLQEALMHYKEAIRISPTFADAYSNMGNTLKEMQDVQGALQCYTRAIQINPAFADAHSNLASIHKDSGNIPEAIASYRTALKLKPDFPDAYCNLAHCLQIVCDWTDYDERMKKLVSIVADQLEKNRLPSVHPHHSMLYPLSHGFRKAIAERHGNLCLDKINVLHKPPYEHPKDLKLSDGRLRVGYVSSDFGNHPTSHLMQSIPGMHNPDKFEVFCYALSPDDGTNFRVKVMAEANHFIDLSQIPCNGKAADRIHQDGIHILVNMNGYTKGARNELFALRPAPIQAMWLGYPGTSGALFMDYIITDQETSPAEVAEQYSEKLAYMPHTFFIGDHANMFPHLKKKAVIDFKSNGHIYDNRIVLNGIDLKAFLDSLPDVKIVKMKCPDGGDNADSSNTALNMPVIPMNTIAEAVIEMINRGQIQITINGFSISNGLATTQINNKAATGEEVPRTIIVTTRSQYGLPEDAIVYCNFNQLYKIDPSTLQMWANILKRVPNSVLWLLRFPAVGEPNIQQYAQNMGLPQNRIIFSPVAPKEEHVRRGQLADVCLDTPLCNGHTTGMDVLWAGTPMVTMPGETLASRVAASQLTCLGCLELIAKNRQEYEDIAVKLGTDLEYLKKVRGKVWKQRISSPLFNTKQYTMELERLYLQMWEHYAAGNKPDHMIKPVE
Description: Reactions contained 50 nM hOGT-(312–1031) in 50 mM Tris/HCl (pH 7.5), 0.1 mg/ml BSA, 10 μM sodium dithionate and 10 μM peptide (KKENSPAVTPVSTA) and various amounts of inhibitors in a total volume of 100 μl. Reaction mixtures were pre-incubated for 15 min and started by addition of UDP-GlcNAc to a final concentration of 3.2 μM. After 30 min of incubation at 22°C, assays were stopped by adding 200 μl of 25 mM Hepes (pH 7.4), 10 mM NaCl, 50% (v/v) methanol and 15 μM fluorophore, a UDP-sensitive xanthene-based Zn(II) complex prepared as described in [19, 20]. Product formation was detected fluorimetrically on a Gemini EM fluorescence microplate reader (Molecular Devices) at excitation and emission wavelengths of 485 nm and 530 nm respectively. A non-linear regression curve fit was performed with Prism.

[5] = biological target: T2, hOGT-(312–1031); experiment: Biolayer interferometry binding to immobilized biotinylated hOGT-(312-1031); conditions: 25°C
Description: Measurements were made on a ForteBio Octet RED384 instrument at 25°C. Biotinylated hOGT-(312–1031) was prepared at 25 μg/ml in TBS (25 mM Tris/HCl, pH 7.5, and 150 mM NaCl) buffer containing 1 mM DTT and immobilized on superstreptavidin biosensors. Free streptavidin sites were blocked by incubation with biocytin. A parallel set of superstreptavidin biosensors were prepared with biotinylated streptavidin to act as a control. The assay was carried out in 384-well plates with a sample volume of 100 μl. Inhibitor solutions were prepared from solid stocks and dissolved in assay buffer and a concentration series of 3-fold dilutions from a top concentration of 100 μM was created. Cycles for analysis involved obtaining a 30 s baseline followed by a 60 s association step and a 120 s dissociation step. The assay was repeated with the reference biosensors to correct for non-specific interactions and the entire assay was repeated in triplicate for both compounds. Data were processed and kinetic parameters were calculated using ForteBio software.

[6] = biological target: T2, hOGT-(312–1031); experiment: In vitro glycosylation of hTAB1 by hOGT, Western blot with TAB1-gSer395 antibody and densitometry; assay type: biochemical; conditions: 1 μM TAB1-(7–402), 10 μM UDP-GlcNAc, Western blot densitometric quantification; read-out: IC50, O-GlcNAcylation of substrate protein TAB1
Description: Reaction mixtures containing 1 μM TAB1-(7–402) protein [TAB1 is TGF (transforming growth factor)-β-activated kinase-binding protein 1] (purified as described previously), 0.125 μM hOGT-(312–1031) and 10 μM UDP-GlcNAc in a buffer of 50 mM Tris/HCl (pH 7.5) and 1 mM DTT were incubated at 37°C for 90 min, separated by SDS/PAGE (10% gels) and transferred on to nitrocellulose membranes. Membranes were probed with a TAB1-gSer^395 (O-GlcNAcylated Ser^395) O-GlcNAc site-specific antibody, followed by an IR800-labelled secondary antibody and analysed using a LI-COR Odyssey scanner and associated quantification software. Data were fitted to a four-parameter equation for dose-dependent inhibition using GraphPad Prism 5.0.

[7] = biological target: T3, goblin2 (UDP-peptide conjugate 14b); experiment: biolayer interferometry
T3 chain: VTPVS([C4 linker-UDP])TA-NH2

[8] = biological target: T4, goblin1 (UDP-peptide conjugate 14a); experiment: biolayer interferometry
T4 chain: VTPVS([C3 linker-UDP])TA-NH2

IC50 [2]: 90 µM
Molecule: O=c1ccn([C@@H]2O[C@H](COP(=O)(O)OP(=O)(O)O)[C@@H](O)[C@H]2O)c(=O)[nH]1 [UDP, reference compound]
Kd [1]: 0.5 µM

Molecule: CC(=O)N[C@@H]1[C@@H](O)[C@H](O)[C@@H](CO)S[C@@H]1OP(=O)(O)OP(=O)(O)OC[C@H]1O[C@@H](n2ccc(=O)[nH]c2=O)[C@H](O)[C@@H]1O [UDP-5S-GlcNAc]
Ki [3]: 8 µM

Molecule: CC(=O)N[C@H]1[C@@H](OP(=O)(O)OP(=O)(O)OC[C@H]2O[C@@H](n3ccc(=O)[nH]c3=O)[C@H](O)[C@@H]2O)O[C@H](CO)[C@@H](O)[C@@H]1O [UDP-GlcNAc]
fold higher Kd than for UDP ([1]; biophysical determination): 30 fold

Molecule: COCCCOP(=O)(O)OP(=O)(O)OC[C@H]1O[C@@H](n2ccc(=O)[nH]c2=O)[C@H](O)[C@@H]1O [compound 17]
SmNodC inhibition [2]: not inhibited
IC50 [4]: 300 µM

Molecule: CC(=O)N[C@H](C(=O)N[C@H](C(=O)N1CCC[C@H]1C(=O)N[C@H](C(=O)N[C@@H](COCCCOP(=O)(O)OP(=O)(O)OC[C@H]1O[C@@H](n2ccc(=O)[nH]c2=O)[C@H](O)[C@@H]1O)C(=O)N[C@H](C(=O)N[C@@H](C)C(N)=O)[C@@H](C)O)C(C)C)[C@@H](C)O)C(C)C [goblin1] (Ac-VTPVS(Propyl(3-UDP))TA-NH2)
SmNodC inhibition [2]: not an inhibitor; also recorded: not inhibited
IC50 [4]: 18 µM
Kd [5]: 7.9 µM
IC50 [6]: 8 µM

Molecule: CC(=O)N[C@H](C(=O)N[C@H](C(=O)N1CCC[C@H]1C(=O)N[C@H](C(=O)N[C@@H](COCCCCOP(=O)(O)OP(=O)(O)OC[C@H]1O[C@@H](n2ccc(=O)[nH]c2=O)[C@H](O)[C@@H]1O)C(=O)N[C@H](C(=O)N[C@@H](C)C(N)=O)[C@@H](C)O)C(C)C)[C@@H](C)O)C(C)C [goblin2] (Ac-VTPVS(X1)TA-NH2)
IC50 [4]: 40 µM
Kd [5]: 4.9 µM

Kd [7]: 4.9 µM
Kd [8]: 7.9 µM
B1: O-GlcNAc transferase (hOGT) 312-1031 (protein)
chain: AEDCYNTALRLCPTHADSLNNLANIKREQGNIEEAVRLYRKALEVFPEFAAAHSNLASVLQQQGKLQEALMHYKEAIRISPTFADAYSNMGNTLKEMQDVQGALQCYTRAIQINPAFADAHSNLASIHKDSGNIPEAIASYRTALKLKPDFPDAYCNLAHCLQIVCDWTDYDERMKKLVSIVADQLEKNRLPSVHPHHSMLYPLSHGFRKAIAERHGNLCLDKINVLHKPPYEHPKDLKLSDGRLRVGYVSSDFGNHPTSHLMQSIPGMHNPDKFEVFCYALSPDDGTNFRVKVMAEANHFIDLSQIPCNGKAADRIHQDGIHILVNMNGYTKGARNELFALRPAPIQAMWLGYPGTSGALFMDYIITDQETSPAEVAEQYSEKLAYMPHTFFIGDHANMFPHLKKKAVIDFKSNGHIYDNRIVLNGIDLKAFLDSLPDVKIVKMKCPDGGDNADSSNTALNMPVIPMNTIAEAVIEMINRGQIQITINGFSISNGLATTQINNKAATGEEVPRTIIVTTRSQYGLPEDAIVYCNFNQLYKIDPSTLQMWANILKRVPNSVLWLLRFPAVGEPNIQQYAQNMGLPQNRIIFSPVAPKEEHVRRGQLADVCLDTPLCNGHTTGMDVLWAGTPMVTMPGETLASRVAASQLTCLGCLELIAKNRQEYEDIAVKLGTDLEYLKKVRGKVWKQRISSPLFNTKQYTMELERLYLQMWEHYAAGN

From article PMC3927924, “Bisubstrate UDP–peptide conjugates as human O-GlcNAc transferase inhibitors” (Biochemical Journal, 2014)
